What was measured:
[1] = Ocular biodistribution by immunohistochemistry against SEQ ID NO: 11; format: in vivo, Lewis rats
Protocol: (§1) For immunohistochemistry, eyeballs were collected and fixed for 1h at room temperature in phosphate buffered saline (PBS) containing 4% paraformaldehyde before being rinsed overnight in PBS. The next day, samples were embedded and frozen in optimal cutting-temperature (OCT) compound (Tissue-Tek®, Sakura Finetek, Zoeterwoude, Netherland) and stored at -80°C. Frozen antero-posterior sections of eyes (10 µm thick) were performed at the optic nerve level using a cryostat (Leica CM 3050S, Rueil-Malmaison, France) and mounted on super-frost slides for immunohistochemical analysis.
(§2) A second set of experiment was designed to evaluate the anti-inflammatory effect of the JNK-inhibitor (poly-)peptide of SEQ ID NO: 11 at the cellular and tissue level as well as the biodistribution of this molecule 24 hours after administration. Rats were randomized into 11 experimental groups. 6 groups of rats with uveitis: untreated uveitic rats, rats injected intravenously with NaCl or the JNK-inhibitor (poly-)peptide of SEQ ID NO: 11 and rats injected intravitreously with the vehicle, the JNK-inhibitor (poly-)peptide of SEQ ID NO: 11 or dexamethasone. The 5 additional groups without uveitis were: untreated healthy rats, rats treated by NaCl IV or the JNK-inhibitor (poly-)peptide of SEQ ID NO: 11 IV and rats injected IVT with NaCl or the JNK-inhibitor (poly-)peptide of SEQ ID NO: 11. Three eyes from separate rats were collected per group and used for immunohistochemistry.
Immunostaining of the JNK-inhibitor (poly-)peptide of SEQ ID NO: 11 was performed on healthy and uveitic eyes to study its ocular biodistribution after systemic or local administration. Briefly, sections were permeabilized as described above before being sequentially incubated with an anti- SEQ ID NO: 11 purified rabbit IgG and a secondary Alexa 594 (red)-conjugated goat anti-rabbit IgG (Invitrogen, Cergy Pontoise, France) diluted 1:100 and 1:250 in PBS respectively. Immunostaining of untreated healthy and uveitic eyes were used as negative controls. Nuclei were stained with DAPI before mounting and observation.

[2] = system: polymorphonuclear cells (PMN); assay: Quantification of infiltrating polymorphonuclear cells on histological sections in EIU; format: in vivo, Lewis rats; conditions: at 24 hours, mean ± SEM
Protocol: as §1, §2
To characterize the cellular infiltrate, sections were double-stained with ED1 and iNOS. […] After staining nuclei with DAPI (Sigma-Aldrich, Saint-Quentin Fallavier, France), sections were mounted in PBS/Glycerol (1/1) and observed by fluorescence photomicroscopy (FXA, Microphot, Nikon, Melville, USA). […] ED1 positive cells and polymorphonuclear cells, identified by the shape of their nuclei stained with DAPI, were quantified on histological sections. […] Results were expressed as mean ± standard error of the mean (SEM).

In the case of `CC(C)C[C@@H](NC(=O)[C@@H](Cc1ccccc1)NC(=O)[C@H]1CCCN1C(=O)[C@@H](CCC(N)=O)NC(=O)[C@H](NC(=O)[C@H]1CCCN1C(=O)[C@@H](CCCNC(=N)N)NC(=O)[C@@H](CO)NC(=O)[C@@H](CCC(N)=O)NC(=O)[C@H](N)CC(=O)O)C(C)C)C(=O)N[C@H](CC(N)=O)C(=O)N[C@H](CC(C)C)C(=O)N[C@@H](C(=O)N[C@@H](C(=O)N1CCC[C@@H]1C(=O)N[C@H](CCCNC(=N)N)C(=O)N[C@H](CCCCN)C(=O)N1CCC[C@@H]1C(=O)N[C@H](CCCNC(=N)N)C(=O)N1CCC[C@@H]1C(=O)N1CCC[C@@H]1C(=O)N[C@H](CCCNC(=N)N)C(=O)N[C@H](CCCNC(=N)N)C(=O)N[C@H](CCCNC(=N)N)C(=O)N[C@H](CCC(N)=O)C(=O)N[C@H](CCCNC(=N)N)C(=O)N[C@H](CCCNC(=N)N)C(=O)N[C@H](CCCCN)C(=O)N[C@H](CCCCN)C(=O)N[C@H](CCCNC(=N)N)C(=O)NCC(=O)O)[C@H](C)O)[C@H](C)O` [SEQ ID NO: 11], the “detection of the peptide in ocular tissues” value ([1]; EIU eyes, 24 hours after IV injection) is reported as “not detected”, the “detection of the peptide in infiltrating inflammatory cells (iris, aqueous humor)” value ([1]; EIU eyes, 24 hours after IV injection, occasional cells) is reported as “immunopositive” and the “subcellular localisation of the peptide” value ([1]; all cell types, normal eyes after IVT administration) is reported as “accumulated within the cytoplasm”. The “immunoreactivity of the peptide in ocular tissues” value ([1]; normal eyes, 24 hours after systemic (IV) injection, 20 µg/kg) was “no signal was observed”, the “distribution of the peptide in ocular tissues” value ([1]; normal rats, 24 hours after IVT administration, 0.2 µg/injection) was “distributed in almost all ocular tissues” and the “distribution of the peptide in ocular tissues and resident cells” value ([1]; uveitic eyes, 24 hours after IVT injection) was “mostly found in ocular tissues like in healthy eyes and in resident cells”. For the same compound, the “number of polymorphonuclear cells (PMN)” value ([2]; IV administration (20 µg/kg)) was 60 ± 6 and the “number of polymorphonuclear cells (PMN)” value ([2]; IVT injection (SEQ ID NO: 11: 0.2 µg/injection)) was 40 ± 5.

Reference: EP2902035B1, “Cell-permeable peptide inhibitors of the JNK signal transduction pathway for use in the treatment of inflammatory eye diseases” (Xigen Inflammation Ltd., priority 2010, dated 2012)
